Here are results for 3 compounds from ChEMBL document CHEMBL1201862, “PubChem BioAssay data set” (2004).

Molecules are shown by their SMILES. Calls of active or inactive are those of the source. Bounds are passed on as bounds.

Test [1] addresses T1, Apoptotic protease-activating factor 1 (Homo sapiens, UniProt O14727).
T1 sequence (O14727 whole entry): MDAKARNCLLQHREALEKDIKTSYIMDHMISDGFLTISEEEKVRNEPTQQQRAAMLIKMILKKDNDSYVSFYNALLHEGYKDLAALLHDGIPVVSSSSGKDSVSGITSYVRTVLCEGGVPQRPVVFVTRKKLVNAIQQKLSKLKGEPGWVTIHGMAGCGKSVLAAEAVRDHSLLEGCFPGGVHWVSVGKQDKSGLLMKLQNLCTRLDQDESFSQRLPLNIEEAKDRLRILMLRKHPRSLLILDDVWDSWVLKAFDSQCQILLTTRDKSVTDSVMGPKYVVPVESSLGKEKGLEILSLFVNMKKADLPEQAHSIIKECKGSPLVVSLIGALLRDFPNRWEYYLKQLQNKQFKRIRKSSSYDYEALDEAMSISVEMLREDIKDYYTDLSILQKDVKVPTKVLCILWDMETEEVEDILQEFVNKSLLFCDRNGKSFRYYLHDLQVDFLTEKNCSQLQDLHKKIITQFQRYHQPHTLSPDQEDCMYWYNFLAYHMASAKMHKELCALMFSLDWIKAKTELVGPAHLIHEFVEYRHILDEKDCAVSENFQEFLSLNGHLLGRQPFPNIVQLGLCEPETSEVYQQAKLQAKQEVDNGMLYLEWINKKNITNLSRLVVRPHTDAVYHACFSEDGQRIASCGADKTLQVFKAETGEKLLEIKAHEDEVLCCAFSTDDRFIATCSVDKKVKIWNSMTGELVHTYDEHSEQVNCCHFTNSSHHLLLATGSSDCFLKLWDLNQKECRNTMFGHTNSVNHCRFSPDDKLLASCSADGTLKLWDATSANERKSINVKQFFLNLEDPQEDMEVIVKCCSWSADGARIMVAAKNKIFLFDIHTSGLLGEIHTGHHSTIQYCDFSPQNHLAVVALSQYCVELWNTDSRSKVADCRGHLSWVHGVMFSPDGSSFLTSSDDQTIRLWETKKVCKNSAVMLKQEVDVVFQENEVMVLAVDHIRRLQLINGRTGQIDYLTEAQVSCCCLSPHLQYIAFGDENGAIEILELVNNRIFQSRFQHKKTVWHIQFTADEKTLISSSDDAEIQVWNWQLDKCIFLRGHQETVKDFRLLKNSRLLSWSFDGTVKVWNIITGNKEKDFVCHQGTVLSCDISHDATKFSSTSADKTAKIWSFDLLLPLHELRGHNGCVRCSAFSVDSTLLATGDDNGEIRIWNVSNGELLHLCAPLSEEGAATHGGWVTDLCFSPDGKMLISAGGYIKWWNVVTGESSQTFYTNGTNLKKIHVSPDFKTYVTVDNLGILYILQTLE
In kind it is functional.

For test [2], the target named is T2, Histone-lysine N-methyltransferase NSD2 (Homo sapiens, UniProt O96028).
T2 sequence (O96028 whole entry): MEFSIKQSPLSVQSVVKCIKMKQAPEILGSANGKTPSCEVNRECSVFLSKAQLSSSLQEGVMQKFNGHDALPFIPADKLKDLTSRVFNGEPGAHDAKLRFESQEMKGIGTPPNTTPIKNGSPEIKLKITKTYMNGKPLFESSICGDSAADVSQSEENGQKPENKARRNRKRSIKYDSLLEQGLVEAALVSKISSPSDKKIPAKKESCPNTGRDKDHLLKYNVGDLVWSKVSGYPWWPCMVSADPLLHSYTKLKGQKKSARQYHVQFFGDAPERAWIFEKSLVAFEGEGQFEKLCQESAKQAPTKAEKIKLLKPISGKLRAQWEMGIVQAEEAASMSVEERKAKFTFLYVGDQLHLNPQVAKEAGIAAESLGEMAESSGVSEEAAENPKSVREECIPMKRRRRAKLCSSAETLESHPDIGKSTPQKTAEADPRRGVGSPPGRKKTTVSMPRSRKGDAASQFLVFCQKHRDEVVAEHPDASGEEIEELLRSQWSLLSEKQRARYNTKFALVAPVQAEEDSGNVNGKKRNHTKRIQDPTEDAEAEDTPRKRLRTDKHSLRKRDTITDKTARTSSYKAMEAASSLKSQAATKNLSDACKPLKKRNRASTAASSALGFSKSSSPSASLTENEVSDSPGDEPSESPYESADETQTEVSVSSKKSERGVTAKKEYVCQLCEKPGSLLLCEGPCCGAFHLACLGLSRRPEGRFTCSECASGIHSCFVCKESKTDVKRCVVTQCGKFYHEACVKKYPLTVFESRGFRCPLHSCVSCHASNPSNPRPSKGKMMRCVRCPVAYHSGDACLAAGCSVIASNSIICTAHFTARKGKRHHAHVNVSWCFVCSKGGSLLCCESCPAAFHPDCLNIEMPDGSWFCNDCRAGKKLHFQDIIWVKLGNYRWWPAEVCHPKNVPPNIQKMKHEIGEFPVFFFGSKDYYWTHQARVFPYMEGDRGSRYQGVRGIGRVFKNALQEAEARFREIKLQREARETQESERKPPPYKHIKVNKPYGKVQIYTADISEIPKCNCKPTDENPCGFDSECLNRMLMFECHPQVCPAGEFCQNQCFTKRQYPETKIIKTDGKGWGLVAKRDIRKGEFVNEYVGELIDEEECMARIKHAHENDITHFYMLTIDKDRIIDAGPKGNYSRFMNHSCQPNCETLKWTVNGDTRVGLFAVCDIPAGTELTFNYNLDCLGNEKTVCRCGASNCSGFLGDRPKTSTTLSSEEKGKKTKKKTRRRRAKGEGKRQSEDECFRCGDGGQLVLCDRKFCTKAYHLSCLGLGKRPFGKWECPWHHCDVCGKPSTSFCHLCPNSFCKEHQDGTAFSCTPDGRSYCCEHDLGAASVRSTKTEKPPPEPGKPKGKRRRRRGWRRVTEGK
In kind it is biochemical.

Test [3] addresses T3, Tyrosyl-DNA phosphodiesterase 2 (Homo sapiens, UniProt O95551).
T3 sequence (O95551 whole entry): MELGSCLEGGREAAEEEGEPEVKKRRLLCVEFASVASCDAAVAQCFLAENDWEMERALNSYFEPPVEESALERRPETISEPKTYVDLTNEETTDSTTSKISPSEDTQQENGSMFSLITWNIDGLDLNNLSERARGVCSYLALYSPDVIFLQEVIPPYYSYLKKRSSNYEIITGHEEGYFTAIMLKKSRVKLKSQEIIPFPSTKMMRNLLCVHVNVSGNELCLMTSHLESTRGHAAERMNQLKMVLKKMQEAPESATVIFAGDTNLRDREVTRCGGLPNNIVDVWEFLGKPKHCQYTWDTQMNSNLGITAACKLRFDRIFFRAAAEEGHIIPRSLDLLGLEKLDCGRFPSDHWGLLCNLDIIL
In words: potency against TDP2 phosphodiesterase activity – biochemical, epi absorbance, IC50, dose response (AID 743297).

Test [4] concerns the target Proto-oncogene tyrosine-protein kinase receptor Ret (Homo sapiens, UniProt P07949). In kind it is functional.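 Also: measured within a kinome-wide profiling panel, RET as the panel member.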
Test [5] concerns the target Tyrosine-protein kinase Fyn (Homo sapiens, UniProt P06241). The test is classed as functional.

Tyrosine-protein kinase Fyn, sequence (P06241 whole entry): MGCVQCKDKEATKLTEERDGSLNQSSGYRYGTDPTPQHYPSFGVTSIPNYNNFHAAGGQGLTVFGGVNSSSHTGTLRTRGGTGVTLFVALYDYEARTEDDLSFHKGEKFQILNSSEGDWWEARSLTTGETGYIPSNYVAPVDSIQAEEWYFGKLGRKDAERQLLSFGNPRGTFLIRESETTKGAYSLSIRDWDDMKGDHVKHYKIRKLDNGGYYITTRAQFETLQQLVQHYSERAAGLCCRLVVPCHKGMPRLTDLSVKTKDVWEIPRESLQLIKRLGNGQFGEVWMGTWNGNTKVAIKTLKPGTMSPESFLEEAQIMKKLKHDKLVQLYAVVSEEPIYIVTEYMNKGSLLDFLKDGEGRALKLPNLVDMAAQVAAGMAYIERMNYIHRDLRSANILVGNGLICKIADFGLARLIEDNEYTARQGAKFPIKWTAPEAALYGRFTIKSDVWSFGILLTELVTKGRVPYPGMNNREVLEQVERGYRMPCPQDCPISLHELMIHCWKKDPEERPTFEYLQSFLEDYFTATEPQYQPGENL
Proto-oncogene tyrosine-protein kinase receptor Ret, sequence (P07949 whole entry): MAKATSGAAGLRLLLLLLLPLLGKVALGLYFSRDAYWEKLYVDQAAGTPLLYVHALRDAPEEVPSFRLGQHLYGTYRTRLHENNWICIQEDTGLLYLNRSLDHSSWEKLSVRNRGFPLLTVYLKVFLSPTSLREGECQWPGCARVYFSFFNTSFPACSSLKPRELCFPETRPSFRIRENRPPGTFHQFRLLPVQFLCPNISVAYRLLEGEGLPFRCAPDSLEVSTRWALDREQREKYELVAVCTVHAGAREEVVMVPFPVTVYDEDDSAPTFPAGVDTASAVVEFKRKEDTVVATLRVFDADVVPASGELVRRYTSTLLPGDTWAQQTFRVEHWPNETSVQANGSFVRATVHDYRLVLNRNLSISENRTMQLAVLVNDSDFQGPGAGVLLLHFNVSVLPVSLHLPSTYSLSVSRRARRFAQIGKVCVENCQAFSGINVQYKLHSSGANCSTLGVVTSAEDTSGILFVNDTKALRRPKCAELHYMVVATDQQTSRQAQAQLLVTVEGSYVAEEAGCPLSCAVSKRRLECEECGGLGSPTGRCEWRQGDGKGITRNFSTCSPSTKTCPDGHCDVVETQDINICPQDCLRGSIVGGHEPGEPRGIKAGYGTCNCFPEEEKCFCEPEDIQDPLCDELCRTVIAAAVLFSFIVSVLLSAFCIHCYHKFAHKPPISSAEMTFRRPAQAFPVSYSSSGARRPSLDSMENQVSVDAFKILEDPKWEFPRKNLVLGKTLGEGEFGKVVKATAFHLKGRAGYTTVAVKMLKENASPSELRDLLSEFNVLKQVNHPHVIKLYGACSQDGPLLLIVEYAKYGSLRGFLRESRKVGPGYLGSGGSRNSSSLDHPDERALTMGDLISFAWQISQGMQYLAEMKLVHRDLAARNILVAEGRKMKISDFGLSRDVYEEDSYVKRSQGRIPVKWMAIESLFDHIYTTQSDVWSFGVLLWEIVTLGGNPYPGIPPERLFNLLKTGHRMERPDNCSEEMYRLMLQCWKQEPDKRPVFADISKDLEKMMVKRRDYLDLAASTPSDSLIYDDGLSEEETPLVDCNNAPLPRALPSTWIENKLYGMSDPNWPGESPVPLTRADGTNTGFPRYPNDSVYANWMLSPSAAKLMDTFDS

As to `CC(=O)N(C1=C(Cl)C(=O)c2ccccc2C1=O)c1ccc(C(=O)O)cc1`, the values for the IC50 in test [1] and in test [3] were 2.92 µM (active) and 9.4 µM (active), respectively. For the same compound, the AC50 in test [2] is 3.29 µM (active).

Take `Cc1ccc(-c2cc3nc(Br)cnc3[nH]2)cc1`: the Ki is 2.51 µM (active) in test [4] and > 6.31 µM (inactive) in test [5].

For the compound `CC1(C)C=C2C(=NN(c3ccccc3)C(N)=C2C#N)CO1`, the IC50 in test [1] is 1.38 µM (active); in test [3], 1.27 µM (active). Also, the AC50 in test [2] was 5.67 µM (active).
